Source: patent US9090589B2, “Specific nNOS inhibitors for the therapy and prevention of human melanoma” (priority 2011, dated 2015)
“Also recorded” adds a separate entry of the source. Like-named read-outs stand apart in the source and are kept apart here. Each block holds one compound with its values, some of them ahead of it.

Legend:
[1] = system: nNOS; test: biochemical; details: for Selectivity nNOS/eNOS: Ki(eNOS)/Ki(nNOS); for Selectivity nNOS/iNOS: Ki(iNOS)/Ki(nNOS)
[2] = molecular target: nNOS (Rattus norvegicus (Rat), UniProt P29476); test: biochemical; details: recombinant isozyme
[3] = system: Sk-Mel28; test: Cytotoxicity in melanoma cell line; type: cell-based; details: Homo sapiens, SK-MEL-28
[4] = molecular target: T1, iNOS (Mus musculus (Mouse), UniProt P29477); test: biochemical
[5] = molecular target: T2, eNOS (Bos taurus (Bovine), UniProt P29473); test: biochemical
[6] = system: wm3211; test: Cytotoxicity in melanoma cell line; type: cell-based; details: Homo sapiens
[7] = molecular target: T2, eNOS; details: read-out: Ki eNOS; recombinant isozyme
[8] = molecular target: T1, iNOS; details: read-out: Ki iNOS; recombinant isozyme
[9] = system: metastatic melanoma cells; test: Matrigel invasion assay; type: cell-based, human
[10] = system: human melanoma cells; test: MTT proliferation of melanoma cells under DETA/NO stress; type: cell-based
[11] = system: nNOS expression in melanoma cells; test: nNOS expression by immunoblotting in melanoma cells; type: cell-based, human; details: for induction of nNOS by DETA/NO or UVB radiation: as low as 1 μM
[12] = system: Lu1205 cells; test: Total NOS activity, Ultrasensitive Colorimetric Assay; type: cell-based, human
[13] = system: metastatic melanoma A375 cells in skin equivalents; test: 3-dimensional skin reconstructs, melanoma growth; type: cell-based, human; details: 2 weeks
[14] = system: metastatic melanoma A375 cells; test: Adhesion of A375 cells to fibroblast monolayer; type: cell-based, human; details: 2 μM, 1 hour
[15] = system: melanoma A375 cells; test: L-arginine-induced intracellular NO, Griess reagent; type: cell-based, human
[16] = system: nNOS expression in normal melanocytes; test: nNOS expression in normal melanocytes; type: cell-based, human; details: DETA/NO
[17] = system: human primary melanocytes; test: MTT proliferation of primary melanocytes; type: cell-based; details: 12-day period, DETA/NO exposure
[18] = molecular target: nNOS (Homo sapiens (Human), UniProt P29475); details: cited from earlier work
[19] = molecular target: T3, iNOS (Homo sapiens (Human), UniProt P35228); type: biochemical
[20] = molecular target: T3, iNOS; details: cited from earlier work

Ki [2]: 48000 nM
Ki [4]: 609 µM
Ki [5]: 122 µM
Structure (SMILES): Nc1cccc(C[C@H]2CN(Cc3ccccc3)C[C@H]2NCCCc2ccccc2)n1 [Compound 2, 6-(((3S,4S)-1-benzyl-4-((3-phenylpropyl)amino)pyrrolidin-3-yl)methyl)pyridin-2-amine]
Selectivity nNOS/eNOS [1]: 2.5
Selectivity nNOS/iNOS [1]: 12.7
IC50 [3]: 3.5 µM
IC50 [6]: 5 µM

Ki [7]: 116 µM
Ki [8]: 13.6 µM
Ki [2]: 210 nM
Structure (SMILES): Cc1cc(N)nc(C[C@H]2CNC[C@H]2NCCNCc2cccc(C(F)(F)F)c2)c1 [Compound 3, N^1-((3S,4S)-4-((6-amino-4-methylpyridin-2-yl)methyl)pyrrolidin-3-yl)-N^2-(3-(trifluoromethyl)benzyl)ethane-1,2-diamine]
Selectivity nNOS/eNOS [1]: 552.4
Selectivity nNOS/iNOS [1]: 64.8

Ki [8]: 5.84 µM
Ki [2]: 98 nM
Structure (SMILES): Cc1cc(N)nc(C[C@H]2CNC[C@H]2NCCN)c1 [Compound 5, N^1-((3S,4S)-4-((6-amino-4-methylpyridin-2-yl)methyl)pyrrolidin-3-yl)ethane-1,2-diamine]

Structure (SMILES): Cc1cc(N)nc(C[C@H]2CNC[C@@H]2NCCNCCc2cccc(F)c2)c1 [Compound 8, N^1-((3R,4S)-4-((6-amino-4-methylpyridin-2-yl)methyl)pyrrolidin-3-yl)-N^2-(3-fluorophenethyl)ethane-1,2-diamine]
invasion potential elevated by L-arginine ([9]; A375 cells, co-treatment with L-arginine 2.87 mM): inhibited; also recorded: efficiently reversed
cell invasion potential elevated by DETA/NO ([9]; co-treatment with DETA/NO): reversed
DETA/NO-stimulated proliferation ([10]; co-treatment, after 3 days): significantly reversed
induction of nNOS by DETA/NO or UVB radiation ([11]; listed as Cpd 8): effectively inhibited the induction of nNOS
induction of nNOS by DETA/NO or UVB radiation ([11]; listed as cpd 8): inhibited nNOS expression
basal nNOS levels of melanoma cells ([11]; up to 200 μM): does not affect basal nNOS levels
NOS activity in metastatic Lu1205 cells ([12]; 1 μM): significantly reduced total NOS activities; also recorded: effectively inhibited
melanoma overgrowth induced by L-arginine in skin reconstruct ([13]; 2 μM, L-arginine 2.87 mM): reversed the overgrowth induced by L-arginine
L-arginine-stimulated adhesion of A375 cells to fibroblast cells [14]: most potent inhibition of the relative adhesion
L-arginine-induced NO generation ([15]; as low as 1 μM, listed as cpd 8): inhibited; also recorded: efficiently inhibited NO production; also recorded: reduced

Structure (SMILES): NCCN(CCN)[N+]([O-])=NO [DETA/NO, 1-[N-(2-Aminoethyl)-N-(2-ammonioethyl)amino]diazen-1-ium-1,2-diolate, reference compound]
nNOS induction in melanocytes [16]: not evident
proliferation of metastatic Lu1205 and SK-Mel28 cells ([10]; 100 μM): Marked stimulation of proliferation
proliferation of primary melanoma wm3211 cells ([10]; 100 μM): not significant
cell proliferation of primary melanocytes [17]: significantly stimulated

Structure (SMILES): N=C(N)NCCC[C@H](N)C(=O)O [L-arginine, reference compound]
invasion potential of metastatic melanoma cells ([9]; 2.87 mM): markedly enhanced the invasion potential
melanoma growth in 3D skin equivalents ([13]; 2.87 mM): significantly promoted melanoma growth
intracellular NO level ([15]; incubation with L-arginine, A375 cells): increased

Structure (SMILES): N=C(N)SCCc1cccc(CCSC(=N)N)c1 [PBIT, 1,3-phenylene-bis(1,2-ethanediyl)bisisothiourea]
Ki [18]: 29 nM
iNOS selectivity over nNOS [19]: 1.5 fold
Ki [20]: 19 nM

Structure (SMILES): Cl.Cl.Cl.NCCCCNCCCN [Spermidine trihydrochloride (ST), Spermidine trihydrochloride, reference compound]
NOS activity in metastatic Lu1205 cells ([12]; 10 μM): comparable inhibition of NOS activity

Structure (SMILES): COc1cc(/C=C/C(=O)CC(=O)/C=C/c2ccc(O)c(OC)c2)ccc1O [curcumin]
L-arginine-induced NO generation ([15]; up to 50 μM): not affected at all; also recorded: failed to inhibit

Structure (SMILES): Oc1ccc(C=Cc2cc(O)cc(O)c2)cc1 [resveratrol]
L-arginine-induced NO generation ([15]; up to 50 μM): not affected at all; also recorded: failed to inhibit
